Source: ChEMBL document CHEMBL5316324, “Discovery, Characterization, and Engineering of LvIC, an α4/4-Conotoxin That Selectively Blocks Rat α6/α3β4 Nicotinic Acetylcholine Receptors” (J Med Chem, 2023)
Numbered stars: 1 amine (or outer) side, 2 acyl side, 3 side chain; on linkers, the order of the positions; unused ones are H or OH. Bridge positions count the residues as written; N and C are the ends. Square brackets hold non-standard residues; d marks the D form. Side chains are listed from the residue outwards. Peptide text beside a SMILES is read from it. ξ: configuration not given here. ξPro(4ξ-NH2) = O=C(C1CC(N[*:3])CN1[*:1])[*:2]; ξpGlu = O=C1CCC(C(=O)O)N1

Key:
[1] = molecular target: T1, Nicotinic acetylcholine receptor alpha6/alpha3/beta4 (Rattus norvegicus, UniProt P04757+P12392+P43143); assay: Inhibition of rat alpha6/alpha3beta4 nAChR expressed in Xenopus Oocytes in presence of acetylcholine by Voltage-clamp recording; assay type: cell-based
Rattus norvegicus = species: Rattus norvegicus; assay: Selectivity ratio of IC50 for rat alpha6/alpha3beta4 nAChR expressed in Stage V-VI Xenopus laevis oocytes in presence of acetylcholine to IC50 for rat alpha3beta4 nAChR expressed in Stage V-VI Xenopus laevis Oocytes in presence of acetylcholine by electrophysiological recording; assay type: cell-based
[2] = molecular target: Neuronal acetylcholine receptor; alpha3/beta2 (Rattus norvegicus, UniProt P04757+P12390); assay: Inhibition of rat alpha3/beta2 nAChR expressed in Stage V-VI Xenopus laevis Oocytes assessed as inhibition of acetylcholine-induced current in presence of acetylcholine by electrophysiological recording; assay type: cell-based, Oocyte
[3] = molecular target: Neuronal acetylcholine receptor; alpha4/beta4 (Rattus norvegicus) (UniProt P09483+P12392); assay: Inhibition of rat alpha4/beta4 nAChR expressed in Stage V-VI Xenopus laevis Oocytes assessed as inhibition of acetylcholine-induced current at 10 uM in presence of acetylcholine by electrophysiological recording relative to control; assay type: cell-based; details: Oocyte
[4] = molecular target: Neuronal acetylcholine receptor; alpha2/beta4 (Rattus norvegicus, UniProt P12389+P12392); assay: Inhibition of rat alpha2/beta4 nAChR expressed in Stage V-VI Xenopus laevis Oocytes assessed as inhibition of acetylcholine-induced current in presence of acetylcholine by electrophysiological recording; assay type: cell-based, Oocyte
[5] = molecular target: Neuronal acetylcholine receptor; alpha3/beta4 (Rattus norvegicus) (UniProt P04757+P12392); assay: Inhibition of rat alpha3/beta4 nAChR expressed in Stage V-VI Xenopus laevis Oocytes assessed as inhibition of acetylcholine-induced current at 10 uM in presence of acetylcholine by electrophysiological recording relative to control; assay type: cell-based; details: Oocyte
[6] = molecular target: Neuronal acetylcholine receptor; alpha2/beta4 (Rattus norvegicus) (UniProt P12389+P12392); assay: Inhibition of rat alpha2/beta4 nAChR expressed in Stage V-VI Xenopus laevis Oocytes assessed as inhibition of acetylcholine-induced current at 10 uM in presence of acetylcholine by electrophysiological recording relative to control; assay type: cell-based; details: Oocyte
[7] = molecular target: Neuronal acetylcholine receptor; alpha3/beta4 (Rattus norvegicus, UniProt P04757+P12392); assay: Inhibition of rat alpha3/beta4 nAChR expressed in Stage V-VI Xenopus laevis Oocytes assessed as inhibition of acetylcholine-induced current in presence of acetylcholine by electrophysiological recording; assay type: cell-based, Oocyte
[8] = molecular target: Nicotinic acetylcholine receptor alpha9/alpha10 (Rattus norvegicus, UniProt P43144+Q9JLB5); assay: Inhibition of rat alpha9/alpha10 nAChR expressed in Stage V-VI Xenopus laevis Oocytes assessed as inhibition of acetylcholine-induced current in presence of acetylcholine by electrophysiological recording; assay type: cell-based, Oocyte
[9] = molecular target: Nicotinic acetylcholine receptor alpha6/alpha3/beta2/beta3 (Rattus norvegicus, UniProt P04757+P12390+P12391+P43143); assay: Inhibition of rat alpha6/alpha3beta2beta3 nAChR expressed in Stage V-VI Xenopus laevis Oocytes assessed as inhibition of acetylcholine-induced current in presence of acetylcholine by electrophysiological recording; assay type: cell-based, Oocyte
[10] = molecular target: Nicotinic acetylcholine receptor alpha9/alpha10 (Rattus norvegicus) (UniProt P43144+Q9JLB5); assay: Inhibition of rat alpha9/alpha10 nAChR expressed in Stage V-VI Xenopus laevis Oocytes assessed as inhibition of acetylcholine-induced current at 10 uM in presence of acetylcholine by electrophysiological recording relative to control; assay type: cell-based; details: Oocyte
[11] = molecular target: Neuronal acetylcholine receptor subunit alpha-7 (Rattus norvegicus) (UniProt Q05941); assay: Inhibition of rat alpha7 nAChR expressed in Stage V-VI Xenopus laevis Oocytes assessed as inhibition of acetylcholine-induced current at 10 uM in presence of acetylcholine by electrophysiological recording relative to control; assay type: cell-based; details: Oocyte
[12] = molecular target: Nicotinic acetylcholine receptor alpha1/beta1/epsilon/delta (Mus musculus, UniProt P02716+P04756+P09690+P20782); assay: Inhibition of mouse alpha1/beta1deltaepsilon nAChR expressed in Stage V-VI Xenopus laevis Oocytes assessed as inhibition of acetylcholine-induced current in presence of acetylcholine by electrophysiological recording; assay type: cell-based, Oocyte
[13] = molecular target: Neuronal acetylcholine receptor subunit alpha-7 (Rattus norvegicus, UniProt Q05941); assay: Inhibition of rat alpha7 nAChR expressed in Stage V-VI Xenopus laevis Oocytes assessed as inhibition of acetylcholine-induced current in presence of acetylcholine by electrophysiological recording; assay type: cell-based, Oocyte
[14] = molecular target: T1, Nicotinic acetylcholine receptor alpha6/alpha3/beta4; assay: (§1) Inhibition of rat alpha6/alpha3beta4 nAChR expressed in Stage V-VI Xenopus laevis Oocytes assessed as inhibition of acetylcholine-induced current in presence of acetylcholine by electrophysiological recording; assay type: cell-based, Oocyte
[15] = molecular target: Neuronal acetylcholine receptor; alpha4/beta4 (Rattus norvegicus, UniProt P09483+P12392); assay: Inhibition of rat alpha4/beta4 nAChR expressed in Stage V-VI Xenopus laevis Oocytes assessed as inhibition of acetylcholine-induced current in presence of acetylcholine by electrophysiological recording; assay type: cell-based, Oocyte
[16] = molecular target: Nicotinic acetylcholine receptor alpha1/beta1/epsilon/delta (Mus musculus) (UniProt P04756+P09690+P02716+P20782); assay: Inhibition of mouse alpha1/beta1deltaepsilon nAChR expressed in Stage V-VI Xenopus laevis Oocytes assessed as inhibition of acetylcholine-induced current at 10 uM in presence of acetylcholine by electrophysiological recording relative to control; assay type: cell-based; details: Oocyte
[17] = molecular target: Neuronal acetylcholine receptor; alpha2/beta2 (Rattus norvegicus) (UniProt P12389+P12390); assay: Inhibition of rat alpha2/beta2 nAChR expressed in Stage V-VI Xenopus laevis Oocytes assessed as inhibition of acetylcholine-induced current at 10 uM in presence of acetylcholine by electrophysiological recording relative to control; assay type: cell-based; details: Oocyte
[18] = molecular target: Nicotinic acetylcholine receptor alpha6/alpha3/beta2/beta3 (Rattus norvegicus) (UniProt P04757+P12390+P12391+P43143); assay: Inhibition of rat alpha6/alpha3beta2beta3 nAChR expressed in Stage V-VI Xenopus laevis Oocytes assessed as inhibition of acetylcholine-induced current at 10 uM in presence of acetylcholine by electrophysiological recording relative to control; assay type: cell-based; details: Oocyte
[19] = molecular target: Neuronal acetylcholine receptor; alpha2/beta2 (Rattus norvegicus, UniProt P12389+P12390); assay: Inhibition of rat alpha2/beta2 nAChR expressed in Stage V-VI Xenopus laevis Oocytes assessed as inhibition of acetylcholine-induced current in presence of acetylcholine by electrophysiological recording; assay type: cell-based, Oocyte
[20] = molecular target: Neuronal acetylcholine receptor; alpha4/beta2 (Rattus norvegicus) (UniProt P09483+P12390); assay: Inhibition of rat alpha4/beta2 nAChR expressed in Stage V-VI Xenopus laevis Oocytes assessed as inhibition of acetylcholine-induced current at 10 uM in presence of acetylcholine by electrophysiological recording relative to control; assay type: cell-based; details: Oocyte
[21] = molecular target: Neuronal acetylcholine receptor; alpha4/beta2 (Rattus norvegicus, UniProt P09483+P12390); assay: Inhibition of rat alpha4/beta2 nAChR expressed in Stage V-VI Xenopus laevis Oocytes assessed as inhibition of acetylcholine-induced current in presence of acetylcholine by electrophysiological recording; assay type: cell-based, Oocyte
[22] = molecular target: Neuronal acetylcholine receptor; alpha3/beta2 (Rattus norvegicus) (UniProt P04757+P12390); assay: Inhibition of rat alpha3/beta2 nAChR expressed in Stage V-VI Xenopus laevis Oocytes assessed as inhibition of acetylcholine-induced current at 10 uM in presence of acetylcholine by electrophysiological recording relative to control; assay type: cell-based; details: Oocyte
[23] = molecular target: Nicotinic acetylcholine receptor alpha6/alpha3/beta4 (Rattus norvegicus) (UniProt P04757+P12392+P43143); assay: as §1, with “current by measuring recovery time at 10 uM preincubated with compound for 5 mins followed by washout” for “current”; assay type: cell-based; details: Oocyte

T1 sequence (P04757 whole entry): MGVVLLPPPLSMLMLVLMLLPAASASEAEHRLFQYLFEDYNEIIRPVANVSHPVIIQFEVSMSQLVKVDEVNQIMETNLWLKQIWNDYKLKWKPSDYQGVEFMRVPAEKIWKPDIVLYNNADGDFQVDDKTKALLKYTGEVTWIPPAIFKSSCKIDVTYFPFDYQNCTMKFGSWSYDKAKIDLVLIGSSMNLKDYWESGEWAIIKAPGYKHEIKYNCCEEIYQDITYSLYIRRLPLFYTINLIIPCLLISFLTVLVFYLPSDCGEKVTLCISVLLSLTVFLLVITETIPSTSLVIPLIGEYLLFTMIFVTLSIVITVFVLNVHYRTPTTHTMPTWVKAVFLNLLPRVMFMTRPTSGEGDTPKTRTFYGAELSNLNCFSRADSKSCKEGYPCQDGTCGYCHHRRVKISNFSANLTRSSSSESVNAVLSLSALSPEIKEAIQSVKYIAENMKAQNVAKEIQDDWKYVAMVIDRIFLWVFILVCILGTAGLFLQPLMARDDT
T1 sequence (P12392 whole entry): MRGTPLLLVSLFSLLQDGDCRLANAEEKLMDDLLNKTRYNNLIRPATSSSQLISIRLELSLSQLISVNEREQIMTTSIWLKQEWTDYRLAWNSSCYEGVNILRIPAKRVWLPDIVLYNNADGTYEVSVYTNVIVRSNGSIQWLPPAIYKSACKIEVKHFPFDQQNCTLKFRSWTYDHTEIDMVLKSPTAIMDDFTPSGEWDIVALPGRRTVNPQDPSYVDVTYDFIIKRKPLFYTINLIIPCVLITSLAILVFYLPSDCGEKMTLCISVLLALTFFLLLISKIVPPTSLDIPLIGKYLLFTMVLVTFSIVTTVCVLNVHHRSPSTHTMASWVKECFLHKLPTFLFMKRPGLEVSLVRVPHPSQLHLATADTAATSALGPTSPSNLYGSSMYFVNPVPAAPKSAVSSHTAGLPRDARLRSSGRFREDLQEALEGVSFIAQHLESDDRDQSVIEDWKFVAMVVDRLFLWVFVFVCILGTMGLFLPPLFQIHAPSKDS
T1 sequence (P43143 whole entry): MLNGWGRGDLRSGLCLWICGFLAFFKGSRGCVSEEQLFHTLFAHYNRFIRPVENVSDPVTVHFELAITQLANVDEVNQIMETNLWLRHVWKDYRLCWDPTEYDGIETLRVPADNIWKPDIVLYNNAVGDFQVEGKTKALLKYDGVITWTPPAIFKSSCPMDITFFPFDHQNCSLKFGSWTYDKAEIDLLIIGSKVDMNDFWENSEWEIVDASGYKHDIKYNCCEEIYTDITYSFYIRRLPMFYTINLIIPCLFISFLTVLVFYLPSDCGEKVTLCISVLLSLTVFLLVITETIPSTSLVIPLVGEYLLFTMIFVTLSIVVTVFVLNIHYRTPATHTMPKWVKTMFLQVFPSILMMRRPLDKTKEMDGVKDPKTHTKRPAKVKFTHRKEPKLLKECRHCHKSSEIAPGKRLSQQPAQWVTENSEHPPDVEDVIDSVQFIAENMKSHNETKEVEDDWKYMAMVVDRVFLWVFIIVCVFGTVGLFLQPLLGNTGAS
Neuronal acetylcholine receptor; alpha4/beta4, sequence (P09483 whole entry): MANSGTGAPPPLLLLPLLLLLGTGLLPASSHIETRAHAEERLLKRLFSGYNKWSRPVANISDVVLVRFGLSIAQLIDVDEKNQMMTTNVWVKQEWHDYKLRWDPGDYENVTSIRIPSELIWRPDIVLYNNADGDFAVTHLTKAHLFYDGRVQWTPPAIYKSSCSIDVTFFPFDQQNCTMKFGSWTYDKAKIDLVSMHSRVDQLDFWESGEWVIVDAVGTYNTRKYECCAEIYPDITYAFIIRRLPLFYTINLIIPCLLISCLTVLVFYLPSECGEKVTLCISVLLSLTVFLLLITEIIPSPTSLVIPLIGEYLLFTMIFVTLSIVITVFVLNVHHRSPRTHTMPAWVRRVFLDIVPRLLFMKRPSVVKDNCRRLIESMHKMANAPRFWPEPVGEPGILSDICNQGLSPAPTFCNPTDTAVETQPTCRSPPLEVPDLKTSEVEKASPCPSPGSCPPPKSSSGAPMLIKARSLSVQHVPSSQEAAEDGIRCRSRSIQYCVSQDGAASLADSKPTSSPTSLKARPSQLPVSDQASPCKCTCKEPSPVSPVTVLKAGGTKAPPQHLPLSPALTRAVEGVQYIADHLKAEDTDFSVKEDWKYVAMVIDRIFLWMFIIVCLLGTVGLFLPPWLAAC
Neuronal acetylcholine receptor; alpha4/beta4, sequence (P12392 whole entry): as the sequence (P12392 whole entry) above
Neuronal acetylcholine receptor; alpha4/beta2, sequence (P09483 whole entry): as the sequence (P09483 whole entry) above
Neuronal acetylcholine receptor; alpha4/beta2, sequence (P12390 whole entry): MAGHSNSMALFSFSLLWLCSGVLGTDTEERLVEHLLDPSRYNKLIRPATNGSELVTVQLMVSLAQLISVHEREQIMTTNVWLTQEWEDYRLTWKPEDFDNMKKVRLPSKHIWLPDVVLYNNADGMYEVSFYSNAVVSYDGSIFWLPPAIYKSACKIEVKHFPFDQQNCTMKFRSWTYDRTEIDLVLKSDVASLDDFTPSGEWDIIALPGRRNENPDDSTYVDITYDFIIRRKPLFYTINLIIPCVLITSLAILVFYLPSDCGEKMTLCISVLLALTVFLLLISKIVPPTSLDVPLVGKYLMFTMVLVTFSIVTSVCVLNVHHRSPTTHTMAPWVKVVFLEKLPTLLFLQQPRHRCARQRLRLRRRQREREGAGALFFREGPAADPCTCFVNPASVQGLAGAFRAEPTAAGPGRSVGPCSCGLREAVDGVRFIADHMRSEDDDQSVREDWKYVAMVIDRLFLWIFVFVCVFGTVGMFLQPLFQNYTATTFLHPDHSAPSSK
Neuronal acetylcholine receptor subunit alpha-7 (Rattus norvegicus), sequence (Q05941 whole entry): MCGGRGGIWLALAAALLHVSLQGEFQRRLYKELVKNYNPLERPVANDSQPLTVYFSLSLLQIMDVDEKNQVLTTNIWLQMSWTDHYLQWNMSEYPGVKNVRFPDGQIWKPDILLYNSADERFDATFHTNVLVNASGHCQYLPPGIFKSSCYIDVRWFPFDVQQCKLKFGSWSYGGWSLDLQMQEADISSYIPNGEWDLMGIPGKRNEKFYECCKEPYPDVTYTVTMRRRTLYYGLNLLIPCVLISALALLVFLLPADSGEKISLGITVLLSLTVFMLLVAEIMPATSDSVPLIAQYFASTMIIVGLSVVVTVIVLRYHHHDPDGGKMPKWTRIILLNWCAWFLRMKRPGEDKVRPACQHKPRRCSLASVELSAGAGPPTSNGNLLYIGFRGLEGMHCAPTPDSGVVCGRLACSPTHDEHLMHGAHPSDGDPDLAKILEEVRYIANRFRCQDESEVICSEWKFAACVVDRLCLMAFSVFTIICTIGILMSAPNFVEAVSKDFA
Neuronal acetylcholine receptor subunit alpha-7, sequence (Q05941 whole entry): as above

| SMILES | IC50 [2] [µM] | inhibition [3] [%] | IC50 [4] [µM] | inhibition [5] [%] | inhibition [6] [%] | IC50 [7] [µM] | IC50 [8] [µM] | IC50 [9] [µM] | inhibition [10] [%] | inhibition [11] [%] | IC50 [12] [µM] | IC50 [13] [µM] | IC50 [14] [µM] | IC50 [15] [µM] | inhibition [16] [%] | inhibition [17] [%] | inhibition [18] [%] | IC50 [19] [µM] | inhibition [20] [%] | TIME [23] [h] | further results |
| --- | --- | --- | --- | --- | --- | --- | --- | --- | --- | --- | --- | --- | --- | --- | --- | --- | --- | --- | --- | --- | --- |
| CC(C)C[C@H](NC(=O)[C@@H](NC(=O)[C@H](C)NC(=O)[C@H](CS)NC(=O)[C@@H]1CCCN1C(=O)[C@@H]1CCC(=O)N1C(=O)[C@H](C)NC(=O)[C@H](CO)NC(=O)[C@H](CS)NC(=O)[C@H](CS)NC(=O)CN)C(C)C)C(=O)N[C@@H](Cc1ccc(O)cc1)C(=O)N[C@@H](CS)C(N)=O |  |  |  |  |  |  |  |  |  |  |  |  |  |  |  |  |  |  |  |  | IC50 [1]: 0.0581 µM; Ratio (Rattus norvegicus): 20 |
| CC(C)[C@H](NC(=O)[C@@H]1CCCN1C(=O)[C@H](CC(N)=O)NC(=O)[C@H](C)NC(=O)[C@H](CS)NC(=O)[C@H](CS)NC(=O)[C@@H](N)CC(=O)O)C(=O)N[C@@H](CS)C(=O)N[C@@H](CC(N)=O)C(=O)NCC(=O)N[C@@H](CCCCN)C(=O)N[C@@H](Cc1cnc[nH]1)C(=O)N[C@@H](CS)C(N)=O (H-DCCANPVCNGKHC-NH2) | > 10 | < 50 | > 10 | < 50 | < 50 | > 10 | > 10 | > 10 | < 50 | < 50 | > 10 | > 10 | 0.31 | > 10 | < 50 | < 50 | < 50 | > 10 | < 50 |  | IC50 [21]: > 10 µM; inhibition [22]: < 50% |
| CC(C)[C@@H]1NC(=O)[C@@H]2CCCN2C(=O)[C@H](CC(N)=O)NC(=O)[C@H](C)NC(=O)[C@@H]2CSSC[C@@H](C(=O)N[C@@H](CCC(N)=O)C(=O)O)NC(=O)[C@H](Cc3cnc[nH]3)NC(=O)[C@H](CCCCN)NC(=O)CNC(=O)[C@H](CC(N)=O)NC(=O)[C@H](CSSC[C@H](NC(=O)[C@@H](N)CC(=O)O)C(=O)N2)NC1=O (H-DCCANPVCNGKHCQ-OH; disulfide 2-8, 3-13) | > 10 | < 50 | > 10 | < 50 | < 50 | > 10 | > 10 | > 10 | < 50 | < 50 | > 10 | > 10 | 3.3 | > 10 | < 50 | < 50 | < 50 | > 10 | < 50 |  | IC50 [21]: > 10 µM; inhibition [22]: < 50% |
| CC(C)[C@H](NC(=O)[C@@H]1CCCN1C(=O)[C@H](CC(N)=O)NC(=O)[C@H](C)NC(=O)[C@H](CS)NC(=O)[C@H](CS)NC(=O)CN)C(=O)N[C@@H](CS)C(=O)N[C@@H](CC(N)=O)C(=O)NCC(=O)N[C@@H](C)C(=O)N[C@@H](Cc1cnc[nH]1)C(=O)N[C@@H](CS)C(N)=O (H-GCCANPVCNGAHC-NH2) |  |  |  |  |  |  |  |  |  |  |  |  | 0.0723 |  |  |  |  |  |  | 0.217 |  |
| CC(C)[C@H](NC(=O)[C@H](CS)NC(=O)[C@H](C)NC(=O)[C@@H]1CCCN1C(=O)[C@H](CC(N)=O)NC(=O)[C@H](Cc1c[nH]c2ccccc12)NC(=O)[C@H](CS)NC(=O)[C@H](CS)NC(=O)CNC(=O)C1CC(NC(=O)[C@H](CO)NC(=O)C2CCC(=O)N2)CN1)C(=O)N[C@@H](CCCCN)C(=O)N[C@@H](CC(N)=O)C(=O)N[C@@H](CCCNC(=N)N)C(=O)N[C@@H](CS)C(N)=O (stereo not given in full) (H-[ξPro(4ξ-NH2)]([Ser-ξpGlu])GCCWNPACVKNRC-NH2) |  |  |  |  |  |  |  |  |  |  |  |  | 0.094 |  |  |  |  |  |  | 0.05 |  |
| CC(C)[C@H](NC(=O)[C@H](Cc1cnc[nH]1)NC(=O)[C@H](CCCCN)NC(=O)[C@H](CS)NC(=O)[C@@H]1CCCN1C(=O)[C@@H]1CCCN1C(=O)[C@H](CC(N)=O)NC(=O)[C@H](C)NC(=O)[C@H](CS)NC(=O)[C@H](CS)NC(=O)C1CCC(=O)N1)C(=O)N[C@@H](CC(N)=O)C(=O)N[C@@H](CS)C(=O)N[C@@H](CCCNC(=N)N)C(N)=O (stereo not given in full) ([ξpGlu]CCANPPCKHVNCR-NH2) |  |  |  |  |  |  |  |  |  |  |  |  | 0.0818 |  |  |  |  |  |  | 0.15 |  |
